Columns and labels:
MT4 [1] = assay: Anti-HIV activity to reduce HIV-2-induced cytopathic effect by 50% in MT-4 cells against HIV-2 ROD; type: functional, cell-based; conditions: Homo sapiens
MT4 [2] = assay: Cytotoxicity to reduce MT-4 cell viability by 50%; type: functional; conditions: Homo sapiens
MT4 [3] = assay: Anti-HIV activity to reduce […] cytopathic effect by 50% in MT-4 cells against HIV-1 IIIB; NA=not active; type: functional, cell-based, Homo sapiens
MT4 [4] = assay: Anti-HIV activity to reduce […] cytopathic effect by 50% in MT-4 cells against HIV-1 IIIB; type: functional, cell-based; conditions: Homo sapiens
MT4 [5] = assay: Compound was evaluated for the inhibition of replication of HIV-1 IIIB or HIV-2 (ROD) in MT-4 cells by using [3H]dGTP radiolabeled substrate; type: functional, cell-based; conditions: Homo sapiens
MT4 [6] = assay: Anti-HIV activity to reduce […] cytopathic effect by 50% in MT-4 cells against HIV-1 IIIB; NA= not active; type: functional, cell-based, Homo sapiens
MT4 [7] = assay: Concentration required to reduce HIV-1-induced cytopathic effect by 50% in MT-4 cells against HIV-1 IIIB; type: functional, cell-based; conditions: Homo sapiens
MT4 [8] = assay: Evaluated for cytotoxicity and the concentration required to reduce MT-4 cell viability by 50% was reported; type: functional; conditions: Homo sapiens
MT4 [9] = assay: Concentration required to reduce HIV-1-induced cytopathic effect by 50% in MT-4 cells against HIV-2 ROD; type: functional, cell-based; conditions: Homo sapiens
MT4 [10] = assay: Evaluated for the inhibition of replication of HIV-1 IIIB or HIV-2 (ROD) in MT-4 cells by using [3H]dGTP radiolabeled substrate; type: functional, cell-based; conditions: Homo sapiens
[11] = Selectivity index ([…] ratio)of the compound; type: functional
MT4 [12] = assay: Evaluated for the inhibition of replication of HIV-1 IIIB or HIV-2 (ROD) in MT-4 cells by using [3H]-dGTP as the radiolabeled substrate; type: functional, cell-based; conditions: Homo sapiens

SMILES	EC50 (MT4 [1]) [µM]	CC50 (MT4 [2]) [µM]	EC50 (MT4 [4]) [nM]	further results
Cc1cccnc1N1C(=O)CSC1c1c(Cl)cccc1Cl (stereo not drawn)	> 31.5	42.6	–	EC50 (MT4 [3]): Not Active
O=C1CSC(c2c(F)cccc2F)N1c1cccnc1 (stereo not drawn)	> 427	> 427	95100	–
Cc1cccc(N2C(=O)CSC2c2c(F)cccc2F)n1 (stereo not drawn)	> 126	126	82	IC50 (MT4 [5]): 2900 nM
Clc1cccc(Cl)c1C1SCc2nc3ccccc3n21 (stereo not drawn)	–	9.43	589	–
Cc1ccnc(N2C(=O)CSC2c2c(Cl)cccc2Cl)c1 (stereo not drawn)	> 368	> 368	147	–
O=C1CSC(c2c(Cl)cccc2Cl)N1c1cccnc1 (stereo not drawn)	–	23.4	> 23000	EC50 (MT4 [6]): Not Active
Cc1ccc(N2C(=O)CSC2c2c(F)cccc2F)nc1 (stereo not drawn)	> 171	202	5130	–
O=C1CSC(c2c(F)cccc2F)N1c1ccccn1 (stereo not drawn)	> 427	> 427	855	–
O=C1CSC(c2c(Cl)cccc2Cl)N1c1ccccn1 (stereo not drawn)	> 38.5	38.5	178	–
O=C1CSC(c2c(F)cccc2F)N1c1ccccc1 (stereo not drawn)	–	–	–	EC50 (MT4 [7]): 2300 nM; CC50 (MT4 [8]): > 429 µM; EC50 (MT4 [9]): > 429 µM
O=C1CSC(c2c(Cl)cccc2Cl)N1c1ccccc1 (stereo not drawn)	> 39	38.1	401	–
Cc1cccnc1N1C(=O)CSC1c1c(F)cccc1F (stereo not drawn)	> 270	> 319	53500	–
Cc1cccc(N2C(=O)CSC2c2c(Cl)cccc2Cl)n1 (stereo not drawn)	285	285	44	IC50 (MT4 [10]): 2240 nM
Cc1ccnc(N2C(=O)CSC2c2c(F)cccc2F)c1 (stereo not drawn)	> 242	242	248	IC50 (MT4 [10]): 2840 nM; Ratio [11]: 976
Fc1cccc(F)c1C1SCc2nc3ccccc3n21 (stereo not drawn) [THIAZOLOBENZIMIDAZOLE]	–	19.2	352	IC50 (MT4 [12]): 14.6 µM

— ChEMBL document CHEMBL1134131, “Discovery of 2,3-diaryl-1,3-thiazolidin-4-ones as potent anti-HIV-1 agents” (Bioorg Med Chem Lett, 2001)
